This passage reports IC50, efflux ratio and Papp results from patent publication US11414404B2, “Compounds for the treatment of BRAF-associated diseases and disorders” (Array BioPharma Inc., priority 2019, dated 2022).

The target of series [1] is full-length FLAG-tagged B-Raf(V600E) (Homo sapiens (Human), UniProt P15056, V600E). As to the kind of experiment: BRAF V600E enzyme assay (TR-FRET competitive displacement of fluorescent tracer). The series is classed as binding. From the text:
A competitive displacement assay was configured for B-Raf that monitors the amount of a fluorescently-tagged “tracer” bound to B-Raf via TR-FRET from an anti-tag Eu-labeled antibody also bound to B-Raf.
[formula] • where: • Xmax Average Uninhibited Controls • Xmin Average Background
A 4-parameter logistic model was the fit to the POC data for each compound.

For series [2], the target named is BCRP (Homo sapiens (Human), UniProt Q9UNQ0). As to the kind of experiment: BCRP MDCKII permeability assay: efflux ratio. The conditions noted are these: dog.
Procedure: (§1) BCRP transfected MDCKII cells were cultured and plated according to manufacturer's recommendations. Assay conditions included with and without the BCRP-specific inhibitor, K0143, at a concentration of 0.3 μM to ascertain the contribution of BCRP to the efflux value of the test compound.
(§2) Both positive and negative controls were used to assess functionality of P-gp or BCRP efflux in the assays. […] Final organic concentration in the assay was 1%. All dosing solutions contained 10 μM lucifer yellow to monitor LLC-PK1 or MDCKII cell monolayer integrity.
(§3) For the apical to basolateral determination (A to B), 75 μL of the test article in transport buffer were added to the apical side of the individual transwells and 250 μL of basolateral media, without compound or lucifer yellow, were added to each well. For the basolateral to apical determination (B to A), 250 μL of test article in transport buffer were added to each well and 75 μL transport buffer, without compound or lucifer yellow, were added to each transwell. All tests were performed in triplicate, and each compound was tested for both apical to basolateral and basolateral to apical transport. The plates were incubated for 2 hours on a Lab-Line Instruments Titer Orbital Shaker (VWR, West Chester, Pa.) at 50 rpm and 37° C. with 5% CO2. All culture plates were removed from the incubator and 50 μL of media were removed from the apical and basolateral portion of each well and added to 150 μL of 1 μM labetalol in 2:1 acetonitrile (acetonitrile): H2O, v/v.
(§4) These values were accepted when found to be below 2% for apical to basolateral and 5% basolateral to apical flux across the MDR1-transfected LLC-PK1 or BCRP-transfected MDCKII cell monolayers. The plates were sealed and the contents of each well analyzed by LC-MS/MS. The compound concentrations were determined from the ratio of the peak areas of the compound to the internal standard (labetalol) in comparison to the dosing solution.
(§5) The LC-MS/MS system was comprised of an HTS-PAL autosampler (Leap Technologies, Carrboro, N.C.), an HP1200 HPLC (Agilent, Palo Alto, Calif.), and a MDS Sciex 4000 Q Trap system (Applied Biosystems, Foster City, Calif.). […] The total run time, including re-equilibration, for a single injection was 1.2 minutes. Mass spectrometric detection of the analytes was accomplished using the ion spray positive mode.
(§6) An efflux ratio is calculated from the mean apical to basolateral (A−B) Papp data and basolateral to apical (B−A) Papp data: Efflux ratio=Papp(B−A)/Papp(A−B)
Series [3] concerns the target P-gp (MDR1) (Homo sapiens (Human), UniProt P08183). The series can be described thus: MDR1 LLC-PK1 permeability assay: efflux ratio. As to conditions: pig, LLC-PK1.
Procedure: (§7) Both LLC-PK1 and MDR1 transfected LLC-PK1 cells were cultured and plated according to manufacturer's recommendations with the exception that the passage media contained only 2% fetal bovine serum to extend passage time out to seven days.
as §2, §3, §4, §5, §6
A short description of series [4]: MDR1 LLC-PK1 and BCRP MDCKII permeability assay: permeability coefficient (Papp).
Procedure: as §7, §1, §2, §3, §4, §5
where Cd, V, t and C0 are the detected concentration (μM), the volume on the dosing side (mL); the incubation time (s) and the initial dosing concentration (μM), respectively. The calculations for Papp were made for each replicate and then averaged.
[5] abbreviates: averaged IC50, 60 min at ambient temperature, 11-point dosing, top dose 10 μM.

Where a name gives a salt, the structure may show the parent alone. Read-outs that look alike come from different tables or passages of the source.

Sequence of BCRP (Q9UNQ0 whole entry, species assumed): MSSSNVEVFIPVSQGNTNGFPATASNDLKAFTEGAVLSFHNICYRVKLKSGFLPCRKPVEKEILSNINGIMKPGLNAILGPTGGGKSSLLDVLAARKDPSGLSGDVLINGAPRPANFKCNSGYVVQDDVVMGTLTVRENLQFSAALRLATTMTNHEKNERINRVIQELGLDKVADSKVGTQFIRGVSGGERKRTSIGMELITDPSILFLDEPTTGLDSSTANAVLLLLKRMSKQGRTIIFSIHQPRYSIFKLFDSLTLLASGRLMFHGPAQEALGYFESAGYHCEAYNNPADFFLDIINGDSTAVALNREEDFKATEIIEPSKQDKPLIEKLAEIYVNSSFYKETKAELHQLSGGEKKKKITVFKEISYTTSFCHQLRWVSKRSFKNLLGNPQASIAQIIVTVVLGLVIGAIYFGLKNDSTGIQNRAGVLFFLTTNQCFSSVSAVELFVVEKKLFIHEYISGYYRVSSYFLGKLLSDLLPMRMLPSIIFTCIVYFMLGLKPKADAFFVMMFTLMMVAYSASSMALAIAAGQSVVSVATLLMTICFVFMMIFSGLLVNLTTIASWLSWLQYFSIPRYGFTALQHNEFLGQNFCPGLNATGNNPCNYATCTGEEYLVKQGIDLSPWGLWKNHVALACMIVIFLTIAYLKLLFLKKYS
Sequence of full-length FLAG-tagged B-Raf(V600E) (P15056 whole entry V600E): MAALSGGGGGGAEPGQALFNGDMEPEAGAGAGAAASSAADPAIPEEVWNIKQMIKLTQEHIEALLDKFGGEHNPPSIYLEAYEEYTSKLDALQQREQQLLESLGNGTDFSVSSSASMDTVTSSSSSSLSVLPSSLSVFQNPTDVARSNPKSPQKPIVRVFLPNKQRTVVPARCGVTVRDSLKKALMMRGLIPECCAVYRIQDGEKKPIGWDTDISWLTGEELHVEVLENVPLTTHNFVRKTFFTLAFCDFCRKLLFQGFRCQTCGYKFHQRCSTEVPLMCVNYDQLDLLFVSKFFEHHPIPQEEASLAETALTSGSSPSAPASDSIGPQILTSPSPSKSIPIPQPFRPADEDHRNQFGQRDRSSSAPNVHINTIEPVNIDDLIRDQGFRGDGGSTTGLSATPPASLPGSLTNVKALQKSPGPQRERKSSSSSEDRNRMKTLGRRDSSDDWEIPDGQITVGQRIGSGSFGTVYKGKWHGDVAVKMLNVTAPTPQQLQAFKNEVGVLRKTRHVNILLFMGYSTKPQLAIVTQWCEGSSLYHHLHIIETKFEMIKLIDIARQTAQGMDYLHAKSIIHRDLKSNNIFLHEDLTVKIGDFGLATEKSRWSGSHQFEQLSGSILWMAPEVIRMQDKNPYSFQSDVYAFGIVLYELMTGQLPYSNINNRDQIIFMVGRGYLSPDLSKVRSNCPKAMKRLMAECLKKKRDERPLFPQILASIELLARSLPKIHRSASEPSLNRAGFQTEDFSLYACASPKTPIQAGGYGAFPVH
Sequence of P-gp (MDR1) (P08183 whole entry, species assumed): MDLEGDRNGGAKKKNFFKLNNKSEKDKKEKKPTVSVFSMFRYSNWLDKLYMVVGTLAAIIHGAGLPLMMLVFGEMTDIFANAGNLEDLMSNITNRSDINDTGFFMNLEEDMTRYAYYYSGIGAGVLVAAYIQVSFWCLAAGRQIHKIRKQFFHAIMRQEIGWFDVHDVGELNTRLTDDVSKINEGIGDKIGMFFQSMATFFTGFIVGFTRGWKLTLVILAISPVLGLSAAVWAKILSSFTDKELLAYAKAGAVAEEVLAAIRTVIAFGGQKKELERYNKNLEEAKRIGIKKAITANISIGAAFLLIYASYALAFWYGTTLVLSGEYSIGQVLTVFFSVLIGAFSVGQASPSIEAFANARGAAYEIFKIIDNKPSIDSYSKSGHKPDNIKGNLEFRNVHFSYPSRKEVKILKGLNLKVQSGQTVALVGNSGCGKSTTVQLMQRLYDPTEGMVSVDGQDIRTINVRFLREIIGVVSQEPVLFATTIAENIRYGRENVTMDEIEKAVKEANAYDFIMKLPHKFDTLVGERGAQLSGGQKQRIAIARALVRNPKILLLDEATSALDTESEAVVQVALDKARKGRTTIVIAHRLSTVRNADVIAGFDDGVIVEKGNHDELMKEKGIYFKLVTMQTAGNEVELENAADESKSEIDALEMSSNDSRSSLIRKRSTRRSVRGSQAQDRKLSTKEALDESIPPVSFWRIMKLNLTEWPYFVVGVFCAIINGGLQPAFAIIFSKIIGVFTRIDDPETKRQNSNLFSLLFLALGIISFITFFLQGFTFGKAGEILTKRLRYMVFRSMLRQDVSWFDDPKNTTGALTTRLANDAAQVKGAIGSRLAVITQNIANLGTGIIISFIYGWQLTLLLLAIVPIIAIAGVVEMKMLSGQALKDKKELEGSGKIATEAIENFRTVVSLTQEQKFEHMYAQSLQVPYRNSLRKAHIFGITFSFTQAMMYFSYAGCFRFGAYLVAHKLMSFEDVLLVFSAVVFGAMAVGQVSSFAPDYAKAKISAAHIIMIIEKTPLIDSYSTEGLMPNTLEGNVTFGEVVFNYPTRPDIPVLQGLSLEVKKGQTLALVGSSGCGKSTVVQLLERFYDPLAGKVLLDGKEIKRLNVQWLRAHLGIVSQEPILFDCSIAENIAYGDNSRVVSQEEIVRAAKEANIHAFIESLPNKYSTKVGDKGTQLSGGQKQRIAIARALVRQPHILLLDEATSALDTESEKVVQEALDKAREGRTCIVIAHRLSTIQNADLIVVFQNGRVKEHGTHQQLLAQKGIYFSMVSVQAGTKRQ

What is called IC50 is the concentration that inhibits the measured activity by half. High values mean weaker potency, low ones greater potency. The efflux ratio is a quotient of directional permeabilities that is used to spot active efflux. The term Papp denotes the rate of passage across a membrane or cell layer, normalised by area and donor concentration. Low readings indicate slow passage, high ones fast passage. As to `[2H]C([2H])([2H])n1cnc2ccc(Nc3c(F)ccc(NS(=O)(=O)CCC)c3Cl)c(C)c2c1=O` [Example 24, N-(2-chloro-4-fluoro-3-((5-methyl-3-(methyl-d3)-4-oxo-3,4-dihydroquinazolin-6-yl)amino)phenyl)propane-1-sulfonamide], the IC50 in series [1] is 0.00905 µM. In addition, the efflux ratio at 2 h, 1 µM in series [2] is 1.18; in series [3], 1.59. This compound returned an apparent permeability coefficient (Papp) at 2 h, 1 µM in series [4] of 256 nm/s.
The compound `Cc1c(Nc2c(F)ccc(NS(=O)(=O)c3cc(F)ccc3F)c2Cl)ccc2ncn(C)c(=O)c12` [Example 25, N-(2-chloro-3-((3,5-dimethyl-4-oxo-3,4-dihydroquinazolin-6-yl)amino)-4-fluorophenyl)-2,5-difluorobenzenesulfonamide] registered an IC50 in series [1] (setting [5]) of 0.00034 µM. Besides, the results for the efflux ratio at 2 h, 1 µM in series [2] and in series [3] were 1.8 and 1.82, respectively. For the same compound, the apparent permeability coefficient (Papp) at 2 h, 1 µM in series [4] was 221 nm/s.
For `Cc1c(Nc2c(F)ccc(NS(=O)(=O)c3ccccn3)c2Cl)ccc2ncn(C)c(=O)c12` [Example 26, N-(2-chloro-3-((3,5-dimethyl-4-oxo-3,4-dihydroquinazolin-6-yl)amino)-4-fluorophenyl)pyridine-2-sulfonamide], in series [1] (setting [5]), the IC50 was 0.0492 µM. Besides, the efflux ratio at 2 h, 1 µM stood at 6.46 in series [2] and 2.04 in series [3]. The same compound came in with an apparent permeability coefficient (Papp) at 2 h, 1 µM in series [4] of 302 nm/s.
Compound `COCCS(=O)(=O)Nc1ccc(F)c(Nc2ccc3ncn(C)c(=O)c3c2C)c1Cl` [Example 27, N-(2-chloro-3-((3,5-dimethyl-4-oxo-3,4-dihydroquinazolin-6-yl)amino)-4-fluorophenyl)-2-methoxyethane-1-sulfonamide] gave a half-maximal inhibitory concentration (IC50) in series [1] (setting [5]) of 0.207 µM. Also, the efflux ratio at 2 h, 1 µM in series [2] stood at 2.09; in series [3], 1.4. The compound further yielded a Papp at 2 h, 1 µM in series [4] of 345 nm/s.
The compound `CCCS(=O)(=O)Nc1ccc(F)c(Nc2ccc3ncn(C)c(=O)c3c2C)c1C#N` [Example 28, N-(2-cyano-3-((3,5-dimethyl-4-oxo-3,4-dihydroquinazolin-6-yl)amino)-4-fluorophenyl)propane-1-sulfonamide] returned a half-maximal inhibitory concentration (IC50) in series [1] (setting [5]) of 0.002 µM. Further, the figures for the efflux ratio at 2 h, 1 µM in series [2] and in series [3] were 33 and 6.46, respectively. The compound also yielded a Papp at 2 h, 1 µM in series [4] of 268 nm/s.
With `CCCS(=O)(=O)Nc1ccc(F)c(Nc2ccc3ncn(Cc4ccccc4)c(=O)c3c2C)c1Cl` [Example 29, N-(3-((3-benzyl-5-methyl-4-oxo-3,4-dihydroquinazolin-6-yl)amino)-2-chloro-4-fluorophenyl)propane-1-sulfonamide], the half-inhibitory concentration (IC50) in series [1] (setting [5]) worked out at 0.174 µM. For the same compound, the values for the efflux ratio at 2 h, 1 µM in series [2] and in series [3] were 0.87 and 1.61, respectively. In series [4], the apparent permeability coefficient (Papp) at 2 h, 1 µM stood at 120 nm/s.
The matching figures for `CCCS(=O)(=O)Nc1ccc(F)c(Nc2ccc3ncn(CCOC)c(=O)c3c2C)c1Cl` [Example 30, N-(2-chloro-4-fluoro-3-((3-(2-methoxyethyl)-5-methyl-4-oxo-3,4-dihydroquinazolin-6-yl)amino)phenyl)propane-1-sulfonamide]: 0.0455 µM, 1.92, 2.59 and 248 nm/s.
`CCCS(=O)(=O)Nc1ccc(F)c(Nc2ccc3ncn(C4CC4)c(=O)c3c2C)c1Cl` [Example 31, N-(2-chloro-3-((3-cyclopropyl-5-methyl-4-oxo-3,4-dihydroquinazolin-6-yl)amino)-4-fluorophenyl)propane-1-sulfonamide trifluoroacetate] registered an IC50 in series [1] (setting [5]) of 0.0251 µM. For the same compound, the efflux ratio at 2 h, 1 µM in series [2] amounted to 1.64; in series [3], 1.59. For the same compound, the Papp at 2 h, 1 µM in series [4] was determined as 245 nm/s.
In series [1] (setting [5]), `CCCS(=O)(=O)Nc1ccc(F)c(Nc2ccc3ncn(-c4ccccc4)c(=O)c3c2C)c1Cl` [Example 32, N-(2-chloro-4-fluoro-3-((5-methyl-4-oxo-3-phenyl-3,4-dihydroquinazolin-6-yl)amino)phenyl)propane-1-sulfonamide trifluoroacetate] gave an IC50 of 0.0927 µM. The efflux ratio at 2 h, 1 µM in series [2] worked out at 1; in series [3], 0.86. The compound further came in with an apparent permeability (Papp) at 2 h, 1 µM in series [4] of 156 nm/s.
The matching figures for `CCCS(=O)(=O)Nc1ccc(F)c(Nc2ccc3ncn(C4CCC4)c(=O)c3c2C)c1Cl` [Example 33, N-(2-chloro-3-((3-cyclobutyl-5-methyl-4-oxo-3,4-dihydroquinazolin-6-yl)amino)-4-fluorophenyl)propane-1-sulfonamide trifluoroacetate]: 0.024 µM, 1.33, 1.2 and 219 nm/s.
Compound `CCCS(=O)(=O)Nc1ccc(F)c(Nc2ccc3ncn([C@@H]4CCOC4)c(=O)c3c2C)c1Cl` [Example 34, (R)-N-(2-chloro-4-fluoro-3-((5-methyl-4-oxo-3-(tetrahydrofuran-3-yl)-3,4-dihydroquinazolin-6-yl)amino)phenyl)propane-1-sulfonamide trifluoroacetate] registered an IC50 in series [1] (setting [5]) of 0.0089 µM. Moreover, the efflux ratio at 2 h, 1 µM in series [2] stood at 2.19; in series [3], 1.81. The Papp at 2 h, 1 µM in series [4] came out at 277 nm/s.
In series [1] (setting [5]), `CCCS(=O)(=O)Nc1ccc(F)c(Nc2ccc3ncn([C@H]4CCOC4)c(=O)c3c2C)c1Cl` [Example 35, (S)-N-(2-chloro-4-fluoro-3-((5-methyl-4-oxo-3-(tetrahydrofuran-3-yl)-3,4-dihydroquinazolin-6-yl)amino)phenyl)propane-1-sulfonamide trifluoroacetate] gave an IC50 of 0.0245 µM. Also, the efflux ratio at 2 h, 1 µM in series [2] was 1.78; in series [3], 1.92. The same compound displayed an apparent permeability (Papp) at 2 h, 1 µM in series [4] of 294 nm/s.
`CCCS(=O)(=O)Nc1ccc(F)c(Nc2ccc3ncn(CC)c(=O)c3c2C)c1Cl` [Example 37, N-(2-chloro-3-((3-ethyl-5-methyl-4-oxo-3,4-dihydroquinazolin-6-yl)amino)-4-fluorophenyl)propane-1-sulfonamide trifluoroacetate] registered an IC50 in series [1] (setting [5]) of 0.0055 µM. Also, the efflux ratio at 2 h, 1 µM is 0.87 in series [2] and 0.94 in series [3]. The compound also gave an apparent permeability coefficient (Papp) at 2 h, 1 µM in series [4] of 299 nm/s.
In the case of `CCCS(=O)(=O)Nc1ccc(F)c(Nc2ccc3ncn(CC4CC4)c(=O)c3c2C)c1Cl` [Example 38, N-(2-chloro-3-((3-(cyclopropylmethyl)-5-methyl-4-oxo-3,4-dihydroquinazolin-6-yl)amino)-4-fluorophenyl)propane-1-sulfonamide], in series [1] (setting [5]), the concentration for half-maximal inhibition (IC50) was determined as 0.0283 µM. Besides, the figures for the efflux ratio at 2 h, 1 µM in series [2] and in series [3] were 1.57 and 1.15, respectively. In series [4], this compound gave an apparent permeability (Papp) at 2 h, 1 µM of 206 nm/s.
Regarding `CCCS(=O)(=O)Nc1ccc(F)c(Nc2ccc3ncn(C4CCCC4)c(=O)c3c2C)c1Cl` [Example 39, N-(2-chloro-3-((3-cyclopentyl-5-methyl-4-oxo-3,4-dihydroquinazolin-6-yl)amino)-4-fluorophenyl)propane-1-sulfonamide trifluoroacetate], the IC50 in series [1] (setting [5]) was 0.0526 µM. The efflux ratio at 2 h, 1 µM stood at 1.33 in series [2] and 1.29 in series [3]. In series [4], this compound showed an apparent permeability coefficient (Papp) at 2 h, 1 µM of 142 nm/s.
As to `CCCS(=O)(=O)Nc1ccc(Cl)c(Nc2ccc3ncn(C)c(=O)c3c2C)c1F` [Example 40, N-(4-chloro-3-((3,5-dimethyl-4-oxo-3,4-dihydroquinazolin-6-yl)amino)-2-fluorophenyl)propane-1-sulfonamide], the IC50 in series [1] (setting [5]) is 0.0439 µM. Moreover, the efflux ratio at 2 h, 1 µM in series [2] came to 2.87; in series [3], 2.2. Further, the Papp at 2 h, 1 µM in series [4] is 287 nm/s.
The matching figures for `CCCS(=O)(=O)Nc1ccc(F)c(Nc2ccc3ncn(C)c(=O)c3c2C)c1C` [Example 41, N-(3-((3,5-dimethyl-4-oxo-3,4-dihydroquinazolin-6-yl)amino)-4-fluoro-2-methylphenyl)propane-1-sulfonamide]: 2.82 µM, 3.28, 2.79 and 298 nm/s.
With `Cc1c(Nc2cc(F)cc(NS(=O)(=O)CCCF)c2Cl)ccc2ncn(C)c(=O)c12` [Example 44, N-(2-chloro-3-((3,5-dimethyl-4-oxo-3,4-dihydroquinazolin-6-yl)amino)-5-fluorophenyl)-3-fluoropropane-1-sulfonamide], in series [1] (setting [5]), the IC50 came to 0.00605 µM. For the same compound, the results for the efflux ratio at 2 h, 1 µM in series [2] and in series [3] were 2.84 and 1.05, respectively. The compound further yielded a Papp at 2 h, 1 µM in series [4] of 242 nm/s.
Consider `Cc1c(Nc2c(F)ccc(NS(=O)(=O)c3ccccc3)c2Cl)ccc2ncn(C)c(=O)c12` [Example 49, N-(2-chloro-3-((3,5-dimethyl-4-oxo-3,4-dihydroquinazolin-6-yl)amino)-4-fluorophenyl)benzenesulfonamide], for which the half-inhibitory concentration (IC50) in series [1] (setting [5]) came to 0.00395 µM. Further, the efflux ratio at 2 h, 1 µM came out at 0.97 in series [2] and 1.24 in series [3]. In series [4], this compound registered a Papp at 2 h, 1 µM of 307 nm/s.
Turning to `CCCS(=O)(=O)Nc1ccc(F)c(Nc2ccc3ncn(-c4cccnc4)c(=O)c3c2C)c1Cl` [Example 58, N-(2-chloro-4-fluoro-3-((5-methyl-4-oxo-3-(pyridin-3-yl)-3,4-dihydroquinazolin-6-yl)amino)phenyl)propane-1-sulfonamide], the half-inhibitory concentration (IC50) in series [1] (setting [5]) was 0.0355 µM. Further, the figures for the efflux ratio at 2 h, 1 µM in series [2] and in series [3] were 1.93 and 2.26, respectively. The compound further displayed an apparent permeability (Papp) at 2 h, 1 µM in series [4] of 276 nm/s.
